From PMC9532399, “The lysosomal transporter TAPL has a dual role as peptide translocator and phosphatidylserine floppase” (Nature Communications, 2022) come the findings set out here.

The test has as its system TAPL N301A mutant. Briefly: Peptide transport assay, N301A. Type of test: biochemical, mouse. The note with it: 9-mer 10 mM (sic), 3 mM ATP. As for the experimental part: Proteoliposomes for peptide transport assays were prepared according to the protocol of Zhao et al., with some modifications. Briefly, E. coli polar lipid extract dissolved in chloroform was dried under a gentle stream of nitrogen. The thin film of lipids was placed under a desiccator overnight to completely remove residual chloroform and then hydrated in 1X PBS buffer pH 7.4 (137 mM NaCl, 2.7 mM KCl, 8 mM Na2HPO4, and 2 mM KH2PO4) with 10 mM MgCl2 and 5% (v/v) glycerol. After water bath sonication at 22 °C for 5 min (Powersonic 610, KLEENTEK), the lipid solution was extruded using a Mini-Extruder equipped with a polycarbonate membrane filter (200 nm pore) (Avanti Polar Lipids, Inc.) to obtain unilamellar vesicles, which were destabilized with 0.36% (w/v) DM. The DM-purified protein and lipid suspension were mixed in a 1:50 (w/w) ratio. After incubation at 4 °C for 2 h, the mixture was treated with Bio-Beads SM-2 resin (60 and 120 mg, see above) at 4 °C for a total of 18 h to remove detergent. The proteoliposomes were collected by centrifugation at 200,000×g for 1.5 h at 4 °C and resuspended in the buffer described above.
The peptide transport activity of ΔTMD0 was measured as described previously. Briefly, 50 μL of ΔTMD0-loaded proteoliposomes (~0.6 μg protein) were added into 200 μL reaction buffer containing 1X PBS pH 7.4, 3 mM ATP, and 10 mM MgCl2 in the presence or absence of 10 μM 5-IAF-labeled peptides. To investigate transport activity, the mixture was incubated at 37 °C for 10 min. The reaction was terminated by incubating the mixture for 20 min on ice. Proteoliposomes were collected by centrifugation at 200,000×g for 30 min and then washed twice with 1X PBS. The proteoliposomes were completely disrupted by adding 10% (w/v) SDS solution (final concentration, 2%). The transported peptide was measured using a microplate reader (Gemini XPS) with excitation at 485 nm and emission at 520 nm.

Regarding “RRYQNSTC^5-IAFL [9-mer, 5-IAF-labeled peptide of 9 residues (RRYQNSTC^5-IAFL)]”, the Transport activity runs as follows: (replicate I) 112.671%; (replicate II) 153.066%; (replicate III) 131.453%; (wild-type = 100%, mean n=3) 132.396%.
